In patent publication US9796704B2, “Substituted quinazolines as receptor-type kinase inhibitors” (Symphony Evolution, Inc., priority 2002, dated 2017):
Read-outs that look alike come from different tables or passages of the source.

Tests used:
EphB4 = EphB4 (Homo sapiens (Human), UniProt P54760); experiment: EphB4 kinase inhibition, 33P phosphoryl transfer assay (radiometric); format: biochemical
ErbB2 = ErbB2 (Homo sapiens (Human), UniProt P04626); experiment: ErbB2 kinase inhibition, AlphaScreen; format: biochemical
Protocol: Kinase activity and compound inhibition are investigated using one or more of the three assay formats described below. The ATP concentrations are selected near its Michaelis-Menten constant (KM) for each individual kinase. Dose-response experiments are performed at ten different inhibitor concentrations in a 384-well plate format. […] These parameters are obtained by nonlinear regression algorithm built into ActivityBase software (available from ID Business Solutions Ltd., of Guildford, Surrey, UK). ^33P Phosphoryl Transfer Assay (Radiometric)

KDR = KDR (Homo sapiens (Human), UniProt P35968); experiment: KDR kinase inhibition, luciferase-coupled chemiluminescent assay (LCCA)
KDR, sequence (P35968 807-1356): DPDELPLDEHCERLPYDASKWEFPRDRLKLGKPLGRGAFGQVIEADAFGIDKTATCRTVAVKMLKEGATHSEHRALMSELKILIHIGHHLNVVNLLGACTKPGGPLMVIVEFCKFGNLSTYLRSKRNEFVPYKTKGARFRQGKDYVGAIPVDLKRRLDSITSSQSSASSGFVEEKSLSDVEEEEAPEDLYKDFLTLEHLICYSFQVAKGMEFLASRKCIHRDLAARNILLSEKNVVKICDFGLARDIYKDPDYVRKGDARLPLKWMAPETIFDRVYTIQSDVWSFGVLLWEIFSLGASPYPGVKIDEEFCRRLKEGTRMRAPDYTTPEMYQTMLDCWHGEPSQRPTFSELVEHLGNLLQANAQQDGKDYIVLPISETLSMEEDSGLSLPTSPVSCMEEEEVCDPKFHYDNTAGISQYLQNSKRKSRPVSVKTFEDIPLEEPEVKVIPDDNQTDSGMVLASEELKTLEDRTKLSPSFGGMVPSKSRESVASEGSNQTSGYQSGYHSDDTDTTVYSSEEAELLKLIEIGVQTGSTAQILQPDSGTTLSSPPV
Protocol: Kinase activity and compound inhibition are investigated using one or more of the three assay formats described below. The ATP concentrations are selected near its Michaelis-Menten constant (KM) for each individual kinase. Dose-response experiments are performed at ten different inhibitor concentrations in a 384-well plate format. […] Typically H is close to unity.
In the LCCA assays, kinase activity is measured by the ATP consumption that is accurately measured by luciferase-coupled chemiluminescence. Greiner 384-well white clear bottom medium binding plates are used for LCCA. Briefly the kinase reaction is initiated by mixing compounds, ATP and kinases in a 20 μL volume. At the end of the kinase reaction, a 20 μL luciferase-luciferin mix is added and the chemiluminescent signal is read on a Wallac Victor^2 reader.

EGFR = EGFR (Homo sapiens (Human), UniProt P00533); experiment: EGFR kinase inhibition, luciferase-coupled chemiluminescent assay (LCCA)
EphA2 = EphA2 (Homo sapiens (Human), UniProt P29317); experiment: EphA2 kinase inhibition, luciferase-coupled chemiluminescent assay (LCCA)
EphA2, sequence (P29317 598-890): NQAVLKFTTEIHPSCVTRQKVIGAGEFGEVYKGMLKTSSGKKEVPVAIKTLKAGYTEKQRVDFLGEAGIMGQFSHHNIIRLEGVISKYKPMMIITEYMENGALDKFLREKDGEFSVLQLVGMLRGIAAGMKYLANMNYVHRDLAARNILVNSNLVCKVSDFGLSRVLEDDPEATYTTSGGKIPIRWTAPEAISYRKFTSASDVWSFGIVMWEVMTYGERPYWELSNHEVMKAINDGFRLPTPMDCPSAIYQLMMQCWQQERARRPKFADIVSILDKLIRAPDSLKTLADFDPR

EphB4, sequence (P54760 605-890): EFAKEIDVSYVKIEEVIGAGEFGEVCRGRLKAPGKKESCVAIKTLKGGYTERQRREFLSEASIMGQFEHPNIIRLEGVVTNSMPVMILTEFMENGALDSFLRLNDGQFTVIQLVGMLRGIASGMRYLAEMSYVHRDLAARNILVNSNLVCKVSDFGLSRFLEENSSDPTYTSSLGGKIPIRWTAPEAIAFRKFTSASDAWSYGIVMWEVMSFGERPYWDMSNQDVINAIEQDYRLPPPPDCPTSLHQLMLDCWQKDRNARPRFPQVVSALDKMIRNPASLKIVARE

Row | Compound | IC50 (EphB4) [nM] | IC50 (ErbB2) [nM] | IC50 (KDR) [nM] | IC50 (EGFR) [nM] | IC50 (EphA2) [nM] | IC50 (KDR; read-out: KDR IC50) [nM] | IC50 (EGFR; read-out: EGFR IC50) [nM] | IC50 (EphA2; read-out: EphA2 IC50) [nM]
1 | COc1cc2c(Nc3ccc(Cl)c(Cl)c3)ncnc2cc1OCC1CN(C(=NC#N)N2CCCCC2)CCO1 (stereo in doubt) [Example 216, [(1E)-[2-({[4-[(3,4-dichlorophenyl)amino]-6-(methyloxy)quinazolin-7-yl]oxy}methyl)morpholin-4-yl](piperidin-1-yl)methylidene]cyanamide] | < 50 | < 50 | 50 to 1000 | < 50 | 50 to 1000 |  |  | 
2 | COc1cc2c(Nc3cc(Cl)c(Cl)cc3F)ncnc2cc1O[C@H]1CO[C@H]2[C@@H]1OC[C@@H]2OC [Example 69, 1,4:3,6-dianhydro-2-O-[4-[(4,5-dichloro-2-fluorophenyl)amino]-6-(methyloxy)quinazolin-7-yl]-5-O-methyl-L-iditol] | < 50 | < 50 |  |  |  | < 50 | < 50 | < 50
3 | COc1cc2c(Nc3ccc(Br)c(Cl)c3)ncnc2cc1O[C@H]1CO[C@@H]2CCO[C@H]12 [Example 77, 1,4:3,6-dianhydro-2-O-[4-[(4-bromo-3-chlorophenyl)amino]-6-(methyloxy)quinazolin-7-yl]-5-deoxy-D-xylo-hexitol] | < 50 | < 50 |  |  |  |  | < 50 | 50 to 1000
4 | COc1cc2c(Nc3ccc(Cl)c(Cl)c3)ncnc2cc1O[C@@H]1CO[C@@H]2[C@H]1OC[C@H]2F [Example 119, 1,4:3,6-dianhydro-2-deoxy-5-O-[4-[(3,4-dichlorophenyl)amino]-6-(methyloxy)quinazolin-7-yl]-2-fluoro-D-iditol] | < 50 | < 50 |  |  |  | < 50 | < 50 | < 50
5 | COc1cc2c(Nc3cc(Br)cc(C(F)(F)F)c3)ncnc2cc1O[C@@H]1CO[C@@H]2[C@H]1OC[C@H]2F [Example 127, 1,4:3,6-dianhydro-5-O-[4-{[3-bromo-5-(trifluoromethyl)phenyl]amino}-6-(methyloxy)quinazolin-7-yl]-2-deoxy-2-fluoro-D-iditol] | < 50 | < 50 |  |  |  | < 50 | < 50 | < 50
6 | COc1cc2c(Nc3ccc(Cl)c(Cl)c3)ncnc2cc1OCc1noc(C2CCCCN2C)n1 (centres unmarked) [Example 154, N-(3,4-dichlorophenyl)-6-(methyloxy)-7-({[5-(1-methylpiperidin-2-yl)-1,2,4-oxadiazol-3-yl]methyl}oxy)quinazolin-4-amine] | < 50 | < 50 |  |  |  |  | < 50 | 
7 | COc1cc2c(Nc3ccc(Cl)c(Cl)c3)ncnc2cc1OCc1cc(C)on1 [Example 160, N-(3,4-dichlorophenyl)-7-{[(5-methylisoxazol-3-yl)methyl]oxy}-6-(methyloxy)quinazolin-4-amine] | < 50 | < 50 |  |  |  |  | < 50 | 
8 | COc1cc2c(Nc3ccc(Cl)c(Cl)c3)ncnc2cc1OCc1ccc2nonc2c1 [Example 163, 7-[(2,1,3-benzoxadiazol-5-ylmethyl)oxy]-N-(3,4-dichlorophenyl)-6-(methyloxy)quinazolin-4-amine] | < 50 | < 50 |  |  |  |  | < 50 | 
9 | COc1cc2c(Nc3ccc(Cl)c(Cl)c3)ncnc2cc1OCc1noc(-c2ccc(C(F)(F)F)cc2)n1 [Example 167, N-(3,4-dichlorophenyl)-6-(methyloxy)-7-[({5-[4-(trifluoromethyl)phenyl]-1,2,4-oxadiazol-3-yl}methyl)oxy]quinazolin-4-amine] | < 50 | < 50 |  |  |  |  | < 50 | < 50
10 | COc1cc2c(Nc3ccc(Cl)c(Cl)c3)ncnc2cc1OCc1cscn1 [Example 170, N-(3,4-dichlorophenyl)-6-(methyloxy)-7-[(1,3-thiazol-4-ylmethyl)oxy]quinazolin-4-amine] | < 50 | < 50 |  |  |  |  | < 50 | < 50
11 | COc1cc2c(Nc3ccc(Cl)c(Cl)c3)ncnc2cc1OCc1c(-c2ccccc2)nn(C)c1Cl [Example 175, 7-{[(5-chloro-1-methyl-3-phenyl-1H-pyrazol-4-yl)methyl]oxy}-N-(3,4-dichlorophenyl)-6-(methyloxy)quinazolin-4-amine] | < 50 | < 50 |  |  |  |  | < 50 | 
12 | COc1cc2c(Nc3ccc(Cl)c(Cl)c3)ncnc2cc1OCC1CCCO1 (centres unmarked) [Example 183, N-(3,4-dichlorophenyl)-6-(methyloxy)-7-[(tetrahydrofuran-2-ylmethyl)oxy]quinazolin-4-amine] | < 50 | < 50 |  |  |  |  | < 50 | 50 to 1000
13 | COc1cc2c(Nc3ccc(Cl)c(Cl)c3)ncnc2cc1OCC1CCC1 [Example 187, 7-[(cyclobutylmethyl)oxy]-N-(3,4-dichlorophenyl)-6-(methyloxy)quinazolin-4-amine] | < 50 | < 50 |  |  |  |  | < 50 | 50 to 1000
14 | COc1cc2c(Nc3ccc(Cl)c(Cl)c3)ncnc2cc1OCCN1C(=O)c2ccccc2C1=O [Example 193, 2-(2-{[4-[(3,4-dichlorophenyl)amino]-6-(methyloxy)quinazolin-7-yl]oxy}ethyl)-1H-isoindole-1,3(2H)-dione] | < 50 | < 50 |  |  |  | < 50 | < 50 | 50 to 1000
15 | COc1cc2c(Nc3ccc(Cl)c(Cl)c3)ncnc2cc1OCc1noc(C2CCCCN2C(=O)OC(C)(C)C)n1 (centres unmarked) [Example 196, 1,1-dimethylethyl 2-[3-({[4-[(3,4-dichlorophenyl)amino]-6-(methyloxy)quinazolin-7-yl]oxy}methyl)-1,2,4-oxadiazol-5-yl]piperidine-1-carboxylate] | < 50 | < 50 |  |  |  | < 50 | < 50 | < 50
16 | COc1cc2c(Nc3ccc(Cl)c(Cl)c3)ncnc2cc1OCc1nc(-c2ccc(N3CCCC3)cc2)cs1 [Example 198, N-(3,4-dichlorophenyl)-6-(methyloxy)-7-({[4-(4-pyrrolidin-1-ylphenyl)-1,3-thiazol-2-yl]methyl}oxy)quinazolin-4-amine] | < 50 | < 50 |  |  |  | < 50 | < 50 | < 50
17 | CCN(CC)c1ccc(-c2csc(COc3cc4ncnc(Nc5ccc(Cl)c(Cl)c5)c4cc3OC)n2)cc1 [Example 199, N-(3,4-dichlorophenyl)-7-[({4-[4-(diethylamino)phenyl]-1,3-thiazol-2-yl}methyl)oxy]-6-(methyloxy)quinazolin-4-amine] | < 50 | < 50 |  |  |  | < 50 | < 50 | < 50
18 | COc1cc2c(Nc3ccc(Cl)c(Cl)c3)ncnc2cc1OCc1nc(-c2ccccn2)cs1 [Example 202, N-(3,4-dichlorophenyl)-6-(methyloxy)-7-{[(4-pyridin-2-yl-1,3-thiazol-2-yl)methyl]oxy}quinazolin-4-amine] | < 50 | < 50 |  |  |  |  | < 50 | 50 to 1000
19 | COc1cc2c(Nc3ccc(Cl)c(Cl)c3)ncnc2cc1OCc1csc(N2CCOCC2)n1 [Example 204, N-(3,4-dichlorophenyl)-6-(methyloxy)-7-{[(2-morpholin-4-yl-1,3-thiazol-4-yl)methyl]oxy}quinazolin-4-amine] | < 50 | < 50 |  |  |  | < 50 | < 50 | < 50
20 | COc1cc2c(Nc3ccc(Cl)c(Cl)c3)ncnc2cc1OCc1nc(CN2CCN(C)CC2)cs1 [Example 207, N-(3,4-dichlorophenyl)-6-(methyloxy)-7-[({4-[(4-methylpiperazin-1-yl)methyl]-1,3-thiazol-2-yl}methyl)oxy]quinazolin-4-amine] | < 50 | < 50 |  |  |  |  | < 50 | 50 to 1000
21 | COc1cc2c(Nc3ccc(Cl)c(Cl)c3)ncnc2cc1OCc1nc(N2CCN(C(=O)OC(C)(C)C)CC2)no1 [Example 215, 1,1-dimethylethyl 4-[5-({[4-[(3,4-dichlorophenyl)amino]-6-(methyloxy)quinazolin-7-yl]oxy}methyl)-1,2,4-oxadiazol-3-yl]piperazine-1-carboxylate] | < 50 | < 50 |  |  |  |  | < 50 | 50 to 1000
22 | CCN1CCCC(c2nc(COc3cc4ncnc(Nc5ccc(Cl)c(Cl)c5)c4cc3OC)no2)C1 (centres unmarked) [Example 239, N-(3,4-dichlorophenyl)-7-({[5-(1-ethylpiperidin-3-yl)-1,2,4-oxadiazol-3-yl]methyl}oxy)-6-(methyloxy)quinazolin-4-amine] | 50 to 1000 |  |  |  |  | < 50 | < 50 | 50 to 1000
23 | CCN1CCC(c2nc(COc3cc4ncnc(Nc5ccc(Cl)c(Cl)c5)c4cc3OC)cs2)CC1 [Example 242, N-(3,4-dichlorophenyl)-7-({[2-(1-ethylpiperidin-4-yl)-1,3-thiazol-4-yl]methyl}oxy)-6-(methyloxy)quinazolin-4-amine] | < 50 |  |  |  |  | < 50 | < 50 | < 50
24 | N-(3,4-dichlorophenyl)-7-({[2-(1-ethylpiperidin-4-yl)-1,3-thiazol-4-yl]methyl}oxy)-6-(methyloxy)quinazolin-4-amine hydrochloride [Example 37] | 50 to 1000 | < 50 |  |  |  |  | < 50 | < 50
